From patent publication US9809602B2, “Compounds for treating viral infections” (INSTITUT PASTEUR KOREA, priority 2014, dated 2017)
pEC50: −log10 of the molar value.

What follows are compounds tested on genotype 1/2 chimeric cell culture derived HCV (HCVcc) (assay: Genotype 1/2 chimeric HCVcc assay (nano-luciferase, HCV replication)). Settings: Hepatitis C virus.
Format: cell-based
Procedure, shortened: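 EC50 (replication, nano-luciferase) and CC50 (viability, cellular ATP) were determined by non-linear regression 72 h after infection with a reporter HCVcc chimera carrying genotype 1a structural and 2a JFH-1 non-structural proteins. Compound was applied to Huh-7.5 cells 2 h before inoculation.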

Compound | pEC50
COc1ccccc1-c1ccc(C(=O)NCCCN2CCC(N3CCCCC3)CC2)cc1 [Compound 1017] | 5.00 to 6.00
O=C(NCCCN1CCC(N2CCCCC2)CC1)c1ccc(-c2ccncc2)cc1 [Compound 1024] | < 5.00
O=C(NCCCN1CCC(N2CCCCC2)CC1)c1ccc(Oc2ccc(Cl)cc2)cc1 [Compound 1109] | 5.00 to 6.00
CC(C)(C)OC(=O)N1CCC(C2CCN(CCCNC(=O)c3ccc(Oc4ccccc4)cc3)CC2)CC1 [Compound 1073] | 6.00 to 7.00
O=C(CCCN1CCC(N2CCCCC2)CC1)Nc1ccc(Oc2ccc(C(F)(F)F)cc2)cc1 [Compound 1078] | 6.00 to 7.00
O=C(NCCCN1CCC(N2CCCCC2)CC1)c1ccc(Oc2cccc(F)c2)cc1 [Compound 1062] | < 5.00
Cc1cc(NC(=O)CCCN2CCC(N3CCCCC3)CC2)ccc1-c1ccc(C(F)(F)F)cc1 [Compound 1152] | > 7.00
O=C(NCCCN1CCC(N2CCCCC2)CC1)c1ccc(-c2ccc(C(F)(F)F)cc2)c(Cl)c1 [Compound 1085] | 6.00 to 7.00
O=C(NC/C=C/CN1CCC(N2CCCCC2)CC1)c1ccc(Oc2ccccc2)cc1 [Compound 1076] | 6.00 to 7.00
O=C(NC/C=C/CN1CCC(N2CCCCC2)CC1)c1ccc(-c2ccc(C(F)(F)F)cc2)cc1 [Compound 1117] | 6.00 to 7.00
NS(=O)(=O)c1ccc(-c2ccc(C(=O)NCCCN3CCC(N4CCCCC4)CC3)cc2)cc1 [Compound 1128] | < 5.00
O=C(NCCCN1CCC(N2CCCCC2)CC1)c1ccc(-c2ccc(Cl)cc2C(F)(F)F)cc1 [Compound 1136] | 6.00 to 7.00
CN1CCC(C2CCN(CCCNC(=O)c3ccc(Oc4ccccc4)cc3)CC2)CC1 [Compound 1065] | 6.00 to 7.00
O=S(=O)(NCCCN1CCC(N2CCCCC2)CC1)c1ccc(-c2ccc(Cl)cc2)cc1 [Compound 1099] | 6.00 to 7.00
O=C(NCCCN1CCC(N2CCCCC2)CC1)c1ccc(-c2ccc(C(F)(F)F)cc2)cc1F [Compound 1153] | 6.00 to 7.00
O=C(NCCCN1CCC(N2CCCCC2)CC1)c1ccc(-c2ccc(OC(F)(F)F)cc2)cc1 [Compound 1119] | 6.00 to 7.00
COc1ccc(-c2ccc(S(=O)(=O)NCCCN3CCC(N4CCCCC4)CC3)cc2)cc1 [Compound 1097] | 6.00 to 7.00
O=C(NCCCN1CCC(N2CCCCC2)CC1)c1ccc(-c2ccc(F)cc2F)cc1 [Compound 1134] | 6.00 to 7.00
O=C(NCCCN1CCC(N2CCCCC2)CC1)c1ccc(-c2cccs2)cc1 [Compound 1023] | 6.00 to 7.00
O=C(NCCCN1CCC(N2CCOCC2)CC1)c1ccc(Oc2ccccc2)cc1 [Compound 1050] | 5.00 to 6.00
O=C(NCCCN1CCC(N2CCCCC2)CC1)c1ccc(-c2ccc(C(F)(F)F)cc2)cc1 [Compound 1019] | 6.00 to 7.00

Same assay, conditions: Hepatitis C virus, Huh7.5, 72 h

Compound | pEC50
CC(C)(C)OC(=O)c1c(NC(=O)NCc2c(-n3cccc3)sc3c2CCN(CCF)C3)sc2c1CCCC2 [Compound 242] | > 7.00
Cc1sc(NC(=O)NCc2c(-n3c(C)ccc3C)sc3c2CCNC3)c(C(=O)OC2CCOC2)c1C (stereo not drawn) [Compound 353] | 5.00 to 6.00
CCNC(=O)c1c(NC(=O)NCc2c(-n3cccc3)sc3c2CCNC3)sc2c1CCCC2 [Compound 59] | > 7.00
CC(C)OC(=O)c1c(NC(=O)NCc2c(-n3cccc3)sc3c2CCN(C)C3)sc2c1CCCC2 [Compound 156] | > 7.00
CCOC(=O)c1c(NC(=O)NCc2c(-n3cccc3)sc3c2CCN(CC)C3)sc2c1CCN(CC)C2 [Compound 26] | > 7.00
COC(=O)c1c(NC(=O)NCc2c(C(F)(F)F)sc3c2CC[N+](C)(C)C3)sc2c1CCCC2 [Compound 223] | 5.00 to 6.00
CCOC(=O)c1c(NC(=O)NCc2c(C(F)(F)F)sc3c2CCN(C(=N)N)C3)sc2c1CCCC2 [Compound 341] | > 7.00
CCOC(=O)c1c(NC(=O)c2cc3c(s2)CCCC3)sc2c1CCN(CC)C2 [Compound 17] | 5.00 to 6.00
CC1CCc2c(sc(NC(=O)NCc3c(-n4cccc4)sc4c3CCN(C)C4)c2C(=O)OC(C)(C)C)C1 (stereo not drawn) [Compound 210] | > 7.00
CC(C)(C)OC(=O)c1c(NC(=O)NCc2c(Br)sc3c2CCNC3)sc2c1CCCC2 [Compound 116] | > 7.00
CCOC(=O)c1c(NC(=O)NCc2c(-n3c(C)ccc3C)sc3c2CCN(CC)C3)sc2c1CCCC2 [Compound 51] | > 7.00
CCN1CCc2c(sc(-n3cccc3)c2CNC(=O)Nc2sc3c(c2C(=O)OC(C)(C)C)CCCCC3)C1 [Compound 115] | > 7.00
CC(C)(C)OC(=O)c1c(NC(=O)NCc2c(-c3cccnc3)sc3c2CCNC3)sc2c1CCCC2 [Compound 123] | > 7.00
Cc1sc(NC(=O)C(=O)NCc2c(-n3cccc3)sc3c2CCNC3)c(C(=O)OC(C)(C)C)c1C [Compound 361] | 6.00 to 7.00
CCN1CCc2c(sc(C(F)(F)F)c2CNC(=O)Nc2sc3c(c2C(=O)OC(C)C)CCCC3)C1 [Compound 171] | > 7.00
CC(C)(C)OC(=O)c1c(NC(=O)NCc2c(-c3ccccc3)sc3c2CCNC3)sc2c1CCCC2 [Compound 130] | > 7.00
CCOC(=O)c1cc(C)ccc1NC(=O)NCc1c(-n2cccc2)sc2c1CCNC2 [Compound 104] | 5.00 to 6.00
CCOC(=O)c1c(NC(=O)NCc2c(-n3cccc3)sc3c2CCCC3)sc2c1CCCC2 [Compound 4] | > 7.00
C=CCCOC(=O)c1c(NC(=O)NCc2c(Br)sc3c2CCNC3)sc2c1CCCC2 [Compound 274] | > 7.00
CCOC(=O)c1c(NC(=O)NCc2c(-n3cccc3)sc(C(=O)OC(C)(C)C)c2C)sc2c1CCCC2 [Compound 50] | 5.00 to 6.00
CCN1CCc2c(sc(Br)c2CNC(=O)Nc2sc3c(c2C(=O)OC2CCCC2)CCCC3)C1 [Compound 263] | > 7.00
CN1CCc2c(sc(-n3cccc3)c2CNC(=O)Nc2sc3c(c2C(=O)OC(C)(C)C)CCC3)C1 [Compound 298] | > 7.00
CCc1sc2c(c1CNC(=O)Nc1sc3c(c1C(=O)OC(C)(C)C)CCCCC3)CCNC2 [Compound 312] | > 7.00
CC(C)(C)OC(=O)c1c(NC(=O)NCc2c(C(F)(F)F)sc3c2CCNC3)sc2c1CCOC2 [Compound 238] | > 7.00
CC(C)(C)OC(=O)c1c(NC(=O)NCc2c(-n3cccc3)sc3c2CCNC3)sc2c1CCC2 [Compound 277] | > 7.00
O=C(NCc1c(-c2ccoc2)sc2c1CCNC2)Nc1sc2c(c1C(=O)OC1CCOC1)CCOC2 (stereo not drawn) [Compound 337] | > 7.00
CC(C)(C)OC(=O)c1c(NC(=O)NCc2c(C(F)(F)F)sc3c2CCNC3)sc2c1CCOC2F (stereo not drawn) [Compound 335] | > 7.00

Compound | pEC50
CN1CCc2c(sc(Br)c2CNC(=O)Nc2sc3c(c2C(=O)OC(C)(C)C)CCCCC3)C1 [Compound 279] | > 7.00
CC(C)OC(=O)c1c(NC(=O)NCc2c(C(F)(F)F)sc3c2CCNC3)sc2c1CCCC2 [Compound 167] | > 7.00
CCOC(=O)c1c(NC(=O)NCc2c(C(F)(F)F)sc3c2CCN(C)C3)sc2c1CCCC2 [Compound 197] | > 7.00
CC(C)OC(=O)c1c(NC(=O)NCc2c(Br)sc3c2CCNC3)sc2c1CCCC2 [Compound 140] | > 7.00
CCOC(=O)c1c(NC(=O)NCc2c(-n3cccc3)sc3c2CCN(Cc2ccc(OC)cc2)C3)sc2c1CCCC2 [Compound 18] | > 7.00
CCOC(=O)c1c(NC(=O)NCc2c(-c3ccoc3)sc3c2CCNC3)sc2c1CCCC2 [Compound 339] | > 7.00
COC(=O)c1c(NC(=O)NCc2c(Br)sc3c2CC[N+](C)(C)C3)sc2c1CCCC2 [Compound 176] | > 7.00
CC(C)(C)OC(=O)c1c(NC(=O)NCc2c(-c3cncc(F)c3)sc3c2CCNC3)sc2c1CCCC2 [Compound 248] | > 7.00
CC(C)(C)OC(=O)c1c(NC(=O)NCc2c(-c3ccccc3C(F)(F)F)sc3c2CCNC3)sc2c1CCCC2 [Compound 161] | 6.00 to 7.00
CCOC(=O)c1c(NC(=O)NCc2c(-n3cccc3)sc3c2CCN(CC)C3)sc2c1CC(C)CC2 (stereo not drawn) [Compound 192] | > 7.00
CCOC(=O)c1c(NC(=O)NCc2ccc(N(C)C)cc2)sc2c1CCCC2 [Compound 103] | > 7.00
CC(C)(C)OC(=O)c1c(NC(=O)NCc2c(C(F)(F)F)sc3c2CCNC3)sc2c1CCC2 [Compound 244] | > 7.00
CCOC(=O)c1c(NC(=O)NCc2c(-n3cccc3)sc3c2CCOC3)sc2c1CCCC2 [Compound 48] | > 7.00
CCOC(=O)c1c(NC(=O)NCc2c(Br)sc3c2CCN(C)C3)sc2c1CCCC2 [Compound 199] | > 7.00
CC(C)(C)OC(=O)c1c(NC(=O)NCc2c(N3CCCC3)sc3c2CCNC3)sc2c1CCCC2 [Compound 143] | > 7.00
CCOC(=O)c1c(NC(=O)NCc2c(-n3cccc3)sc3c2CCN(CC)C3)sc2c1CCNC2 [Compound 46] | 6.00 to 7.00
Cc1sc(NC(=O)NCc2c(-n3cccc3)sc3c2CCN(C)C3)c(C(=O)OC(C)(C)C)c1C [Compound 69] | > 7.00
CC(C)(C)OC(=O)c1c(NC(=O)NCc2c(-c3ccc(F)cc3Cl)sc3c2CCNC3)sc2c1CCCC2 [Compound 286] | 6.00 to 7.00
Cc1sc(NC(=O)NCc2c(Br)sc3c2CCN(C)C3)c(C(=O)OC(C)C)c1C [Compound 297] | > 7.00
CC(C)(C)OC(=O)c1c(NC(=O)NCc2c(-n3cccc3)sc3c2CCN(C2CC2)C3)sc2c1CCCC2 [Compound 334] | > 7.00
CCN1CCc2c(sc(-n3cccc3)c2CNC(=O)Nc2sc(C)c(C)c2C(=O)OC(C)(C)C)C1 [Compound 25] | > 7.00
CCN1CCc2c(sc(-n3cccc3)c2CNC(=O)Nc2nccs2)C1 [Compound 13] | < 5.00
CCOC(=O)c1c(NC(=O)NCc2c(C(F)(F)F)sc3c2CCNC3)sc2c1C(C)CCC2 (stereo not drawn) [Compound 190] | > 7.00
CCOC(=O)c1c(NC(=O)NCc2c(-n3cccc3)sc3c2CCN(C(C)=O)C3)sc2c1CCCC2 [Compound 20] | > 7.00
O=C(NCc1c(C(F)(F)F)sc2c1CCNC2)Nc1sc2c(c1C(=O)OC1CCOC1)CCOC2 (stereo not drawn) [Compound 336] | > 7.00
O=C(NCc1c(-n2cccc2)sc2c1CCNC2)Nc1sc2c(c1C(=O)OC1CCCCC1)CCCC2 [Compound 273] | > 7.00
CN(C)c1cccc(-c2sc3c(c2CNC(=O)Nc2sc4c(c2C(=O)OC(C)(C)C)CCCC4)CCNC3)c1 [Compound 230] | 5.00 to 6.00
